Reference: patent publication US20040116405A1, “Use of bicyclic esters or amides for the treatment of diseases responsive to enhanced potassium channel activity” (priority 2001, published 2004)

Molecular target: T1, hIK channels (Homo sapiens, UniProt O15554)
T1 construct: The full length hSK-1, 2, 3 and IK clones were obtained; expressed in transfected cells
Assay: Whole cell patch clamp electrophysiology, hIK channels expressed in CHO-K1 cells (FIG. 1)
Assay type: cell-based
Method: FIG. 1 illustrates the activation of hIK channels expressed in CHO—K1 cells by a compound of formula (V): [drawing 3]
The full length hSK-1, 2, 3 and IK clones were obtained either by PCR and 5′-RACE from a human cDNA library (Genbank accession numbers hSK1 U69883; hSK-2 unpublished) or from the Incyte or dbEST databases (Incyte Pharmaceuticals, Inc.; hSK3 AJ251016, hIK AF022797). An optimal Kozak sequence was added to the initiation site and the cDNA was cloned into Bluescript and subsequently the IRES vector pCIN5 for mammalian expression.
All SK/IK stable cell lines were generated in CHO—K1 using the pCIN5 construct, under selection for resistance to 500 μg/ml geneticin. Five μg of the purified plasmid DNA was used to transfect 5×10^6 CHO—K1 cells (ATCC N° CRL 9618) by electroporation (standard protocol with BIORAD Gene Pulser II). […]
Standard whole cell patch clamp electrophysiology methods are used to record membrane currents from single cells expressing either SK or IK channels. […] Membrane currents are amplified and recorded with an Axopatch 200B or HEKA EPC-9 patch clamp amplifier coupled to a Pentium microprocessor via an analog-digital interface. […] Pipettes are backfilled with an internal solution containing a 144 mM KCl, 10 mM EGTA, 10 mM HEPES, 1 mM MgCl2 and concentrations of CaCl2 calculated to give free Ca^2+ concentrations ranging from 30 nM to 1 μM. […]

Molecule: NC(=O)/C=C1\CCc2c(F)cc(F)cc21 [compound of formula (V)]
- activation of hIK channels (whole cell currents, timecourse, concentration response curves) (hIK expressed in CHO-K1 cells, FIG. 1(a)-(c)): activation

Molecule: charybdotoxin
- inhibition of hIK current by the IK blocker (charybdotoxin 100 nM, hIK in CHO-K1 cells activated by compound of formula (V), FIG. 1(d)): inhibition
